# Source: patent US6759432B2, “Medical use of matrix metalloproteinase inhibitors for inhibiting tissue contraction” (University of Florida Research Foundation, priority 1994, dated 2004)
# Legend:
# [1] = system: Tenons capsule fibroblast; test: Actin cytoskeleton staining with FITC-phalloidin; type: cell-based, human; settings: 40 μg/ml
# Protocol: Monolayer cultures of fibroblasts and collagen lattices (gels) seeded with 1×10^5 cells per lattice were prepared (as described in Example 1).
# In order to assess whether this difference was owing to the direct effect of the inhibitor or to differences in the degree of invasion into the matrix, cells were exposed in monolayer culture to the inhibitor and the cytoskeleton was-stained. See FIGS. 10A (control) and 10B (exposed to inhibitor). The arrows indicate the stress fibres on the cells in the monolayer culture.
# [2] = system: human keratinocytes and human dermal fibroblasts; test: Contraction of artificial skin equivalent; type: cell-based; settings: 40 μg/ml; 7 days; vs hydroxamic acid 100 μM
# Protocol: The effect of an MMP inhibitor on the contraction of an artificial skin equivalent was tested. […] This lattice was then exposed to growth medium containing Galardin at 40 μg/ml or hydroxamic acid at 100μM (control).
# [3] = system: Human ocular fibroblasts (Tendon's capsule fibroblasts); test: Toxicity by tritiated thymidine incorporation (DNA synthesis); type: cell-based; settings: 80.0, 8.0 and 0.8 μg/ml; 24 hours; medium plus 10% serum and vehicle
# Protocol: The toxicity of the inhibitors was tested by measuring DNA synthesis by tritiated thymidine incorporation. The assay was adapted from a procedure previously described, Woost, P. G. et al 1992.
# Human ocular fibroblasts (Tendon's capsule fibroblasts) were cultured in Trimix (DMEM/F-10/M-199) cell culture medium (available from GIBCO/BRL) supplemented with 10% bovine calf serum and grown to confluency in T-75 tissue culture flasks. (That is flasks having a surface area of 75 cm^2.) The cells were split and seeded into 24 well plates at a density of 1×10^4/well in 1.0 ml of medium with 10% bovine calf serum. The cells were incubated for 24-36 hours or until they reached 60-70% confluency. The medium was then changed to serum-free Trimix and the cells were incubated for an additional 24 hours. The cells were then incubated in quadruplicate wells for 24 hours with 1.0 μCi/well ^3H-thymidine in the following conditions: serum-free medium (Trimix), medium plus 10% serum, medium plus 10% serum and vehicle, alone or with the inhibitors. The vehicle was a buffered acetate solution. The solutions comprising medium with 10% serum and vehicle, alone or with inhibitors, were prepared by the method described in Example 1, section (c), above, using Trimix instead of the HEPES buffered DMEM. […] Radioactivity was determined by liquid scintillation counting […] of the solubilized cells. […]
# [4] = system: rat parietal sheath fibroblasts; test: Collagen lattice contraction, rat parietal sheath fibroblasts; type: cell-based; settings: 40 μg/ml
# Protocol: (§1) Collagen lattices (gels) were prepared as previously described in Example 1 and were seeded with 1×10^5 cells per lattice of:
# (§2) The lattices were then exposed to growth medium containing Galardin at 40 μg/ml or hydroxamic acid at 100μM (control). The test solutions were made up as described in Example 3 above and approximately 3 ml dose of the appropriate test solutions were used.
# [5] = molecular target: gelatinase; test: Inhibition constant with gelatinase; type: biochemical
# [6] = system: human ocular fibroblasts; test: Contraction of fibroblast populated collagen gels (lattice area); type: cell-based; settings: for contraction of gels (mean lattice area): 40 and 4 μg/ml, 7 days, vs hydroxamic acid control
# Protocol: They were then removed from their substratum via a trypsinisation and were pelleted by centrifugation at 3000× g for 8 minutes. The supernatant was then discarded and the cell pellet resuspended in 1.1 ml of newborn calf serum. 100 μl of the suspension was removed and counted in a Coulter counter (Model ZF).
# Triplicate gels were made by adding 1.05 ml of the concentrated medium to 1.8 ml of the type 1 collagen solution, mixing rapidly and then adding 0.45 ml of a cell suspension containing 300,000 cells and mixing rapidly.
# 1 ml aliquots of this gel were then added to petri dishes (area=8 cm^2) and then the dishes were rotated so that the gels were evenly distributed across the bottoms of the dishes. The gels were then incubated at 37° C. in 5% CO2 in air until they had solidified (usually 3 to 5 minutes). An area of the gel was then detached from the edge of each petri dish and 3 ml of normal growth medium solution (control 2), inhibitor test solution or buffer solution (control 1), were added. Each gel was then fully detached from the edges and bottom of the petri dish so that free-floating gels were obtained.
# The gels, after solidification, were treated for 24 hours with 3 ml of each of the following test solutions:
# The test and control solutions were replaced by 3 ml of the appropriate fresh solution after 24 hours. Photographs of the gel areas were taken on days 1 and 2 and were then digitised. The resulting data were processed by a computer and the gel areas were calculated. Phase-contrast photographs were taken of the top and middle of each gel after 1 and 2 days.
# Test solutions were used in approximately 3 ml doses. For all contraction experiments cell morphology was monitored by phase contrast microscopy and the growth medium was changed every 3 to 4 days.
# Collagen gels were seeded with either 100,000 or 500,000 cells. […] The gels were monitored for 7 days.
# They were exposed to inhibitor and control solutions in the following ways:
# The experiment was carried out as for (a) above with 1×10^5 cells per lattice and the test solutions used were BB-94 4 μg/ml, BB-94 0.4 μg/ml and control with vehicle (0.1% vol/vol DMSO). The development of the lattices was followed for seven days after seeding.
# The experiment was carried out as for (d) above except that the test solutions used were 1:50 (vol/vol) of antibodies in growth medium. The antibodies used were antibodies to MMPs 1, 2, 3 and 9, obtained from Biogenesis Ltd., (Poole, U.K.). A control solution of 0.1% sodium azide and 0.14% rabbit serum in PBS diluted to 1:50 in growth medium was also used.
# [7] = molecular target: stromelysin (Homo sapiens, UniProt P08254); test: biochemical
# Chain of stromelysin (P08254 100-477): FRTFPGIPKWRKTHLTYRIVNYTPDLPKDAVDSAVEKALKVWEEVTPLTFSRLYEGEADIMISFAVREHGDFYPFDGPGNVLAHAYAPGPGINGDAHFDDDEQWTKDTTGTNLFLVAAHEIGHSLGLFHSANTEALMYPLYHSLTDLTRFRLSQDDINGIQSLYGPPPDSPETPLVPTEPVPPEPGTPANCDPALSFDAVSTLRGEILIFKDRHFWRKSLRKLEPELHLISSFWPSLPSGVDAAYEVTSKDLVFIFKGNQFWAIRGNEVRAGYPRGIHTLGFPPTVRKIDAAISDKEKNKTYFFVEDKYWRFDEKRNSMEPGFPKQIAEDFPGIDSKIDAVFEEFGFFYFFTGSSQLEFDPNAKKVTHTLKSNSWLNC
# [8] = system: MMP activity (proteolytically active species) of human Tenon's capsule fibroblasts; test: Gelatin zymography of seeded collagen lattices; type: cell-based; settings: treatment of seeded lattices
# Protocol: Samples of conditioned medium and collagen lattices (1×10^5 cells/lattice) were collected on days 1, 3 and 7 post seeding. Lattices were washed in phosphate buffered saline (PBS; 3×3 ml) prior to homogenisation in 0.5% (vol/vol) Triton-X100 in PBS (Hunt et al. 1993]. Gelatin zymography [Heussen & Dowdle 1980] was then performed on these samples. Briefly, samples and prestained molecular weight standards were resolved on 10% tris glycine gels containing 0.1% gelatin (Novex, R&D Systems, Oxford, U.K.). Gels were then incubated for 30 minutes in renaturing buffer, 30 minutes in developing buffer followed by a further 18 hours in developing buffer at 37° C. (all Novex). Gels were than stained in 0.5% (wt/vol) commassie blue in 45% (vol/vol) water, 45% (vol/vol) methanol and 10% (vol/vol) glacial acetic acid, followed by destaining in 45% (vol/vol) water, 45% (vol/vol) water, 45% (vol/vol) methanol and 10% (vol/vol) glacial acetic acid. MMP activity appeared as clear bands on a blue background.
# [9] = system: ocular fibroblasts; test: Fibroblast morphology within collagen lattices (phase contrast microscopy); type: cell-based, human
# Protocol: Collagen lattices seeded with ocular fibroblasts were prepared and exposed to MMP inhibitors, both synthetic chemicals and antibodies, as described in Example 3 above. Cellular morphology was monitored by phase contrast microscopy.
# [10] = system: human ocular fibroblasts; test: Cytotoxicity: cell count and trypan blue dye exclusion; type: cell-based; settings: 40 and 4 μg/ml; 2×10^4 cells per well; vs control medium
# Protocol: This experiment was carried out substantially according to the method of Example 2, except that cells were seeded at 2×10^4 cells per well, cultured without radioactive material and were exposed to control medium (DMEM/10% NCS) or Galardin at 40 μg/ml and 4 μg/ml concentration. […] Wells were harvested and cells counted on a haemocytometer, see FIG. 3E for the results, and the percentage of viable cells in each well was measured using the trypan blue dye exclusion test, see FIG. 3F for the results.
# [11] = system: human dermal fibroblasts; test: Collagen lattice contraction, human dermal fibroblasts; type: cell-based; settings: 40 μg/ml
# Protocol: as §1, §2
# [12] = system: rat endotendon fibroblasts; test: Collagen lattice contraction, rat endotendon fibroblasts; type: cell-based; settings: 40 μg/ml
# Protocol: as §1, §2
# [13] = 1×10^5 cells per lattice, 7 days, vs hydroxamic acid 100 μM
smiles,measurement,setting,value
"CNC(=O)[C@H](Cc1c[nH]c2ccccc12)NC(=O)[C@@H](CC(=O)NO)CC(C)C [GM6001, N-[2(R)-2-(hydroxamidocarbonylmethyl)-4-methylpentanoyl]-L-tryptophan methylamide]",actin stress fibres on cells populating collagen gels,[1]; collagen lattice,do not appear to be present
same,actin cytoskeleton in monolayer culture,"[1]; monolayer culture, compared to controls",did not appear to affect the actin cytoskeleton
same,contraction of artificial skin equivalent (mean lattice area),[2],less contraction than those exposed to the control solution
same,toxicity (3H-thymidine incorporation),[3],no significant toxicity
same,contraction of lattices (mean lattice area),[4]; [13],greatly reduced
same,cellular invasion into and migration through the surrounding matrix,[4]; compared to controls,decreased cellular invasion into and migration through
same,Ki,[5],0.4 nM
same,contraction of lattices already contracted for 5 days,"[6]; 4 μg/ml from day 5 for 25 days, vs control solution",inhibited contraction
same,contraction after replacement of inhibitor by control solution (reversibility),"[6]; 4 μg/ml until day 14, then control solution",significant increase in contraction from day 14 onwards
same,contraction of lattices already contracted for 5 days,[6]; 40 μg/ml from day 5 for 25 days,stronger inhibitory effect than the 4 μg/ml solution
same,contraction of collagen gels (gel area),"[6]; 400, 40 and 4 μg/ml, 100,000 cells per gel, 2 days, vs buffer and normal growth medium",inhibited the contraction of the collagen gels
same,dose dependence of inhibition of gel contraction,"[6]; 400, 40 and 4 μg/ml, 2 days",dose dependent
same,viability of cells in the collagen gels at end of test (phase contrast microscopy),"[6]; 400, 40 and 4 μg/ml, 2 days",appeared to be viable
same,contraction of gels (mean lattice area),"[6]; 100,000 cells per lattice",much less than that of gels exposed to control solutions
same,contraction of gels (mean lattice area),"[6]; 500,000 cells per lattice",much less than that of gels exposed to the control solution
same,contraction of lattices (mean lattice area),"[6]; continual exposure to 4 μg/ml, 1×10^5 cells/lattice, up to 40 to 50 days",very little contraction
same,Ki,[7],20 nM
same,proteolytically active species in gelatin zymography,[8],abolishment of the four proteolytically active species
same,cell morphology in lattices,"[9]; 4 μg/ml, 7 days post seeding",Small cytoplasmic projections
same,invasion into the surrounding collagen matrix,"[9]; synthetic inhibitors as in Example 3, compared to controls",decreased invasion into the surrounding collagen matrix
same,cell number per well (haemocytometer),[10],did not adversely affect
same,"cell viability (percentage of viable cells, trypan blue)",[10],did not adversely affect
same,contraction of lattices (mean lattice area),[11]; [13],greatly reduced
same,cellular invasion into and migration through the surrounding matrix,[11]; compared to controls,decreased cellular invasion into and migration through
same,contraction of lattices (mean lattice area),[12]; [13],greatly reduced
same,cellular invasion into and migration through the surrounding matrix,[12]; compared to controls,decreased cellular invasion into and migration through
CC(C)C[C@H](CC(=O)O)C(=O)N[C@@H](Cc1c[nH]c2ccccc12)C(=O)N[C@@H](C)c1ccccc1 [GM1489],toxicity (3H-thymidine incorporation),[3],no significant toxicity
